# What was measured:
# [1] = target: T1, dUTPase (Homo sapiens, UniProt P33316); test: dUTPase activity assay, % inhibition of dUTPase catalysis at 100 μM (Table 1); type: biochemical; conditions: fixed concentration of 100 μM
# T1 sequence (P33316 94-252 limits assumed): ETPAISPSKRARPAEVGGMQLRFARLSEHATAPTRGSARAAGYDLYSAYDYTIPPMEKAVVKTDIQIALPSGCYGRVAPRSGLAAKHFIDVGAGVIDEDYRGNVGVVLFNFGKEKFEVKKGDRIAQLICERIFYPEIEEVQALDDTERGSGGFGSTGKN
# Experimental: dUTPase Activity Assay Cells were harvested and protein isolated and quantified as per Western blotting. Twenty-five μg of total protein was normalized to a 20 μl reaction volume with PBS/protease inhibitor. Relative dUTPase activity was determined as previously described (9) and is expressed as fold-change compared to an identical transfection in the presence of 0.5 μg/ml dox.
# These molecules were tested in our dUTPase activity assay at an initial 100 μM in vitro to determine their percentage inhibition of dUTPase catalysis relative to un-inhibited control. Table 1 illustrates the docking fitness scores of the top four active compounds and their ability to inhibit dUTPase activity.
# [2] = system: MCF-7 human breast cancer cell line; test: Growth inhibition by MTS assay in MCF-7 cells, alone and combined with FUdR; type: cell-based; conditions: MCF-7, MTS assay; for IC50: Homo sapiens, MCF7, read-out: concentration required to inhibit 50% cell growth; for combined drug effect with FUdR on growth inhibition: compound fixed at 62.5 μM with increasing concentrations of FUdR
# Experimental: FIG. 9. Inhibitors of dUTPase induce growth arrest in the MCF-7 human breast cancer cell line. (A) MCF-7 cells were exposed to increasing concentrations of two novel dUTPase inhibitory lead compounds and growth inhibition was analyzed by MTS assay. […] (B) DU-203 at a fixed concentration of 62.5 μM was combined with increasing concentrations of FUdR and the combined drug effect analyzed by MTS assay and the degree of synergy determined using the methods of Chou and Talalay. […] BB-123 enhances the growth arrest of MCF-7 cells when combined with FUdR. (C) BB-123 at a fixed concentration of 62.5 μM was combined with increasing concentrations of FUdR and the combined drug effect analyzed as described previously.
# Inhibitors of dUTPase induce growth arrest in the MCF-7 human breast cancer cell line. […] These growth inhibitory effects are consistent with the inhibition of dUTPase and the resultant accumulation of dUTP and uracil misincorporation during DNA replication. To test the specificity of these inhibitors, DU-203 and BB-123 were combined with the inhibitor of thymidylate synthase (TS), FUdR.
# [3] = system: MCF-7 pTet-off cells; test: dUTP accumulation assay; type: cell-based, human; conditions: 24 h; for reduction in dUTP pool expansion with dUTPase overexpression versus basal dUTPase: 10 μM 5-FU or 1 μM FUdR
# Experimental: FIG. 5. Elevated dUTPase Protects Breast Cancer Cells from 5-FU. (A) Western blot and analysis of dUTPase expression and corresponding dUTPase enzyme activity assay following 72 h transfection with pTre-Tight:DUT-N in the presence and absence of 0.5 μg/m1 dox, Histogram bars represent the mean ±SEM of corresponding Western lysates analyzed in duplicate. (B) Analysis of dUTP accumulation in pTre-Tight:DUT-N-transfected MCF-7 psTet-off cells with basal (+dox) and induced (−dox) dUTPase expression and treated with 10 μM 5-FU, 1 μM FUdR and taxol (paclitaxel) 5 nM for 24 h, % dUTP was calculated as described in ‘Materials and Methods’, Histogram bars represent the mean ±SEM of two independent treatments, †=dUTP not detected. (C) Growth inhibition measured by MTS assay in pTre-Tight:DUT-N-transfected MCF-7 pTet-off cells following treatment with increasing concentrations (in μM) of 5-FU for 72 h. Histogram bars represent the mean ±SEM of three independent treatments, *=p<0.05, **=p<0.01.
# dUTP Accumulation Assay MCF-7 pTet-off cells were treated with specified concentrations of 5-FU, FUdR and taxol for indicated times, harvested, and 3×10^6 cells were analyzed for nucleotide pool content using the assay developed by Sherman and Fyfe (10) modified to detect levels of TTP and dUTP by pre-incubating extracts with recombinant dUTPase (9, 11). Radioactive incorporation, measured in the presence of dUTPase represented the TTP pool, while untreated extracts represented both the dUTP and TTP pools. dUTP accumulation was determined by subtracting the results of extracts treated with dUTPase from untreated extracts and presented as % accumulation in histogram format. Statistical significance was determined using a two-tailed unpaired Student's t-test (Graphpad, San Diego, Calif.).
# Elevated dUTPase Protects Breast Cancer Cells from 5-FU. […] A tetracycline-repressible dUTPase expression construct and overexpressed dUTPase with an approximate 4-fold increase in expression and enzymatic activity in transfected tet-inducible MCF-7 pTet-off cells (FIG. 5A) was utilized. […]
# [4] = system: MCF-7 pTet-off cells; test: Growth inhibition assay in MCF-7 pTet-off cells; type: cell-based; conditions: Homo sapiens, MCF7; MCF-7 cells, 72 h
# Experimental: Growth Inhibition Assay MCF-7 pTet-off cells were transfected in the presence or absence of 0.5 μg/ml of dox and growth inhibition was measured as previously (9) using CellTiter 96® AQueous One Solution (Promega, Madison, Wis.). Cells were exposed to increasing concentrations of 5-FU for 72 h. Absorbance was measured using a SpectraMax 190 microplate reader (Molecular Devices, Sunnyvale, Calif.) at 490 nm, with drug treated cells compared to untreated controls set at 100%. Statistical significance was determined using a two-tailed unpaired Student's t-test (Graphpad, San Diego, Calif.).
# We subsequently investigated the effects of dUTPase overexpression on growth inhibition following exposure of MCF-7 pTet-off cells to increasing concentrations of 5-FU.
# [5] = target: T2, DPD (Homo sapiens, UniProt Q12882); conditions: cited from earlier work
# T2 construct: host or cells: liver
# T2 sequence (Q12882 4-1025): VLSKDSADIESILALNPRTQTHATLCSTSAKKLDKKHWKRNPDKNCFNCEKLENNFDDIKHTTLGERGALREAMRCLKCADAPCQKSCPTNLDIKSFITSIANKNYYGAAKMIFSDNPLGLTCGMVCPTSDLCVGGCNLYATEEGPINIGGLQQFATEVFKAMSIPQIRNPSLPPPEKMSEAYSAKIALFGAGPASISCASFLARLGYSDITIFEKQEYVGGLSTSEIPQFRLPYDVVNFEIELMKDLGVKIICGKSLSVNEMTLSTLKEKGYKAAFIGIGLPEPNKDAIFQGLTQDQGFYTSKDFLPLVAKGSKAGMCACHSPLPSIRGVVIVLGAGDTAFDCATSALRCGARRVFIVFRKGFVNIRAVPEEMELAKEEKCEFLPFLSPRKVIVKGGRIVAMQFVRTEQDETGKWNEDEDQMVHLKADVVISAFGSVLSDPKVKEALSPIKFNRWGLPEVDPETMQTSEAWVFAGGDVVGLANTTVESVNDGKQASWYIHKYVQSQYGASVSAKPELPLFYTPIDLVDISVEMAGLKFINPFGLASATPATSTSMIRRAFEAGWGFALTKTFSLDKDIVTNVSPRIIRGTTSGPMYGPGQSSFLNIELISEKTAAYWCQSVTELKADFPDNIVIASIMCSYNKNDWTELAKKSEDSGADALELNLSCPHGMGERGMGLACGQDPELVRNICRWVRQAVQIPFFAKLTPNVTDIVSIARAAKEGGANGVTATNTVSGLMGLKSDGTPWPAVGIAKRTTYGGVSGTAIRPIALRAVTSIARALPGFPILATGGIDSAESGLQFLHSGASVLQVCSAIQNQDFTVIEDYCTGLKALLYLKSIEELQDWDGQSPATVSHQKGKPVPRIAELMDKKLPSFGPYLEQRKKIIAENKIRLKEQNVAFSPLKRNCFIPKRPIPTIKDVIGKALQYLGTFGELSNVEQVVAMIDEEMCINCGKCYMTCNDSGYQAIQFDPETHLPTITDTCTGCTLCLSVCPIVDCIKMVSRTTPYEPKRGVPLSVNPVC
# [6] = system: advanced breast cancer; conditions: cited from earlier work; for time to progression: capecitabine alone, or lapatinib combined with capecitabine
structure (smiles),measurement,setting,value
CC(=O)CSc1nc2c(c(=O)[nH]c(=O)n2C)n1CC(O)COc1ccccc1C (centres unmarked) [BB37],inhibition at 100 µM,[1],34%
CCc1ccc(N2CN(c3ccc(CC)cc3)CN(c3ccc(CC)cc3)C2)cc1 [BB123],IC50,[2],73.8 µM
same,combined drug effect with FUdR on growth inhibition,[2],enhanced growth inhibition at all concentrations tested
same,combined drug effect with FUdR on growth inhibition,[2]; listed as BB-123,enhanced growth inhibition is observed at all concentrations tested
"O=c1[nH]cc(F)c(=O)[nH]1 [Compound 5-FU, 5-fluorouracil]",reduction in dUTP pool expansion with dUTPase overexpression versus basal dUTPase,[3],37%
same,IC50,[4],> 10 µM
same,5-FU degraded by DPD in the liver,[5],> 80%
CCCc1ccc(OCC(=O)Nc2ccc(S(=O)(=O)Nc3onc(C)c3C)cc2)cc1 [Du 7],inhibition at 100 µM,[1],55.7%
Cc1cc(C)c(NC(=O)CSc2nc3ccc(NC(=O)CSc4nnc(COc5ccccc5)n4-c4ccccc4)cc3s2)c(C)c1 [Du 44],inhibition at 100 µM,[1],28.5%
N#Cc1c(N)nc(SCC(=O)c2ccc(F)cc2)c(C#N)c1-c1ccc(OCc2ccccc2)cc1 [Du 202],% dUTPase Inhibition,[1],Inactive
COc1cc(/C=N/NC(=O)C(Cc2c[nH]c3ccccc23)NC(=O)OCc2ccccc2)cc([N+](=O)[O-])c1O (centres unmarked) [Du 203],IC50,[2],65.1 µM
same,combined drug effect with FUdR on growth inhibition,[2],enhanced growth inhibition is observed at all concentrations tested
"O=c1[nH]c(=O)n([C@H]2C[C@H](O)[C@@H](CO)O2)cc1F [FUdR, fluorodeoxyuridine]",reduction in dUTP pool expansion with dUTPase overexpression versus basal dUTPase,[3],38%
CCCCCOC(=O)Nc1nc(=O)n([C@@H]2O[C@H](C)[C@@H](O)[C@H]2O)cc1F [capecitabine],time to progression,[6],19.7 weeks
CS(=O)(=O)CCNCc1ccc(-c2ccc3ncnc(Nc4ccc(OCc5cccc(F)c5)c(Cl)c4)c3c2)o1 [lapatinib],time to progression,[6],36.9 weeks
same,improved response rate compared to capecitabine alone,"[6]; combined with capecitabine, ErbB2 positive advanced breast cancer, previously failed multiple lines of therapy",12.2%
CC(=O)O[C@H]1C(=O)[C@@]2(C)[C@H]([C@H](OC(=O)c3ccccc3)[C@]3(O)C[C@H](OC(=O)[C@H](O)[C@@H](NC(=O)c4ccccc4)c4ccccc4)C(C)=C1C3(C)C)[C@]1(OC(C)=O)CO[C@@H]1C[C@@H]2O [paclitaxel],dUTP detection,"[3]; taxol 5 nM, basal or induced dUTPase expression",no detection of dUTP

# Reference: US20110212467A1, “INHIBITORS OF dUTPase” (UNIVERSITY OF SOUTHERN CALIFORNIA, priority 2008, published 2011)
